Experimental data: the NIST ThermoML archive (doi:10.1016/j.tca.2013.03.025)

Assay: refractive index (Na D-line) (dimensionless); xn = mol fraction of the nth substance listed
Details: 101 kPa, Liquid, Standard Abbe refractometry

CCCCOC(=O)C(C)O (stereo not given) [butyl 2-hydroxypropanoate] + CC(O)CO
refractive index
Details	x1 = 0.0999	x1 = 0.2	x1 = 0.3	x1 = 0.3999	x1 = 0.4998	x1 = 0.6	x1 = 0.6996	x1 = 0.7999	x1 = 0.9	x1 = 1
288.15 K	1.43214	1.43049	1.42918	1.42809	1.42709	1.42629	1.42548	1.42482	1.42412	1.42379
293.15 K	1.43038	1.42865	1.42726	1.42611	1.42506	1.42421	1.42336	1.42266	1.42191	1.42152
298.15 K	1.42861	1.42683	1.42535	1.42414	1.42303	1.42211	1.42124	1.42048	1.4197	1.41925
303.15 K	1.42682	1.42494	1.4234	1.42214	1.42099	1.42002	1.4191	1.41831	1.41749	1.41697
308.15 K	1.42503	1.42307	1.42146	1.42013	1.41894	1.4179	1.41696	1.41611	1.41528	1.4147
313.15 K	1.42323	1.42118	1.4195	1.41814	1.41687	1.41575	1.41482	1.41392	1.41307	1.41241
318.15 K	1.42143	1.41927	1.41751	1.41605	1.41479	1.41365	1.41265	1.41169	1.41083	1.41006
323.15 K	1.41962	1.4173	1.41556	1.41404	1.41275	1.41156	1.41049	1.4095	1.40859	1.40778

CCCCOC(=O)C(C)O (stereo not given) [butyl 2-hydroxypropanoate] + OCCCO
refractive index
Details	x1 = 0.0999	x1 = 0.2	x1 = 0.3001	x1 = 0.4	x1 = 0.4999	x1 = 0.5999	x1 = 0.6996	x1 = 0.8001	x1 = 0.9	x1 = 1
288.15 K	1.43875	1.43674	1.43484	1.43308	1.43138	1.42969	1.42809	1.42652	1.4251	1.42379
293.15 K	1.43724	1.4351	1.43311	1.43126	1.42947	1.4277	1.42602	1.42438	1.4229	1.42152
298.15 K	1.43568	1.43346	1.43136	1.42942	1.42754	1.42569	1.42396	1.42225	1.4207	1.41925
303.15 K	1.43417	1.4318	1.4296	1.42758	1.42563	1.42369	1.42187	1.4201	1.4185	1.41697
308.15 K	1.43265	1.43015	1.42783	1.42571	1.42367	1.42167	1.4198	1.41796	1.41629	1.4147
313.15 K	1.43112	1.42848	1.42606	1.42385	1.42173	1.41964	1.4177	1.41579	1.41408	1.41241
318.15 K	1.4296	1.42681	1.42426	1.42197	1.41977	1.41759	1.41556	1.41358	1.41183	1.41006
323.15 K	1.42813	1.42537	1.42267	1.42009	1.41772	1.41555	1.41347	1.41153	1.40962	1.40778

CCCCOC(=O)C(C)O (stereo not given) [butyl 2-hydroxypropanoate] + CCCO
refractive index
Details	x1 = 0.1	x1 = 0.2	x1 = 0.3001	x1 = 0.3998	x1 = 0.5	x1 = 0.5999	x1 = 0.7001	x1 = 0.7996	x1 = 0.8998	x1 = 1
288.15 K	1.39449	1.4003	1.4052	1.40922	1.41285	1.41543	1.41816	1.42021	1.42209	1.42379
293.15 K	1.39238	1.39818	1.40305	1.40704	1.41067	1.41321	1.41593	1.41798	1.41984	1.42152
298.15 K	1.39028	1.39605	1.40088	1.40485	1.40846	1.41101	1.41369	1.41572	1.41758	1.41925
303.15 K	1.38813	1.39389	1.3987	1.40265	1.40623	1.40877	1.41144	1.41346	1.4153	1.41697
308.15 K	1.38599	1.3917	1.39651	1.40042	1.40398	1.40652	1.40919	1.4112	1.41304	1.41469
313.15 K	1.38382	1.38951	1.39427	1.3982	1.4017	1.40425	1.40691	1.40893	1.41077	1.4124
318.15 K	1.3816	1.38726	1.39198	1.39591	1.39938	1.40195	1.40455	1.40658	1.40842	1.41005
323.15 K	1.37938	1.38505	1.38973	1.39364	1.3971	1.39967	1.40228	1.40433	1.40617	1.40778
